A short description of data set [1]: Clarity of gel phase by UV/VIS absorbance. It counts as physicochemical. The conditions noted are these: original oral gel, 0.5% (w/w) zinc level; for Absorbance: 610 nm, DI water blank. The protocol:
Four 500.0 g gel phase batches which contain NaF (control), ZLC, ZnCl2 and ZnO as active ingredient are formulated with the ingredients shown in Table 8. The clarity of samples with different actives is compared, and the precipitation characteristic of ZLC gel phase by dilution is evaluated. The concentration of zinc ions in ZLC solution is 25300 ppm obtained by ICP, which in terms gives approximately 17% weight of ZLC actives in the solution. Zinc ion concentration in the following batches are all prepared at 0.5% (w/w) zinc level.
(§1) Lambda 25 UV/VIS Spectrometer (PerkinElmer) is used to obtain absorbance information for all samples in order to compare the clarity of gel phase between different actives. Absorbance is a logarithmic measure of the amount of light that is absorbed when passing through a substance. Since the particles in the gel absorb light, the more particles existing in solution, the more light absorbed by the gel. Thus, a small number of absorbance of a gel indicates a higher clarity. The absorbance is corrected by using deionized (DI) water as the blank solution under the light source wavelength of 610 nm.

The nature of data set [2]: pH of gel phase batches. It counts as physicochemical. The note with it: original oral gel batch.
The nature of data set [3]: Dilution experiment of gel phase batches (absorbance). It counts as physicochemical. The note with it: for Absorbance, 2 fold dilution: gel phase batch diluted 2 fold; for Absorbance, 4 fold dilution: gel phase batch diluted 4 fold; for Absorbance, 8 fold dilution: gel phase batch diluted 8 fold; for Absorbance, 16 fold dilution: gel phase batch diluted 16 fold; for Absorbance, 32 fold dilution: gel phase batch diluted 32 fold.
Description: as §1
(§2) Dilution experiment: All original gel phase batch are diluted into 2 fold, 4 fold, 8 fold, 16 fold and 32 fold. […] This observation confirms the formation of precipitate when ZLC gel is being diluted by water. The pHs of 2 fold, 4 fold, 8 fold, 16 fold, and 32 fold diluted ZLC gel solution are 7.71, 7.91, 8.03, 8.12, and 8.14, respectively.

Data set [4] can be described thus: pH of diluted ZLC gel solution. It counts as physicochemical. The protocol: as §2
The nature of data set [5]: Dilution of neat ZLC solution, flocculation/precipitation monitored. It counts as physicochemical. The conditions noted are these: 37° C. The protocol:
Various dilutions of ZLC are prepared to evaluate its efficiency in producing visible precipitates and/or flocculation, which can be delivered onto a dental surface (dentine and/or enamel) for whitening benefits.
(§3) A neat solution of ZLC is prepared by 1), reacting 0.5 mole of ZnO powder with 1 mole of lysine HCl in 1 liter of water at room temperature for about 2 hours, and 2) collecting the supernatant through centrifugation followed by filtration using a 0.45 micron membrane. The neat solution has a zinc concentration of 2.39% by weight, and a pH of about 7.03.
(§4) Dilution experiment is conducted by mixing the neat solution with deionized water. The neat solution is diluted by 2×, 4×, 6×, 7×, 8×, 10×, 12×, 16×, 20×, 24×, 28×, and 32×, corresponding to initial zinc concentrations of 1.20%, 0.598%, 0.398%, 0.341%, 0.299%, 0.239%, 0.199%, 0.149%, 0.120%, 0.0996%, 0.0854%, 0.0747%, by weight, respectively. The diluted samples are kept at 37° C., and the rates at which flocculation/precipitation occurred are monitored.

Data set [6] is described as follows: pH of neat and final diluted ZLC solutions. It counts as physicochemical. The protocol: as §3, §4
pH values of final diluted samples are suitable for oral care applications. […] These pH values are well within the range of 5.5 to 10, which defines the suitable range for oral care formulations.

Data set [7] is described as follows: Deposition/occlusion assay, confocal imaging. Further details: species or system human. The conditions noted are these: 0.149% zinc, 1 hour at 37° C. The protocol: (§5) The deposition/occlusion assay is conducted using human dentine slices and the neat solution of Example 3. The dentine slices are prepared by cutting human tooth into thin dentine sections of about 800 microns in thickness, designating a test side, sanding said test side using a sandpaper of about 600 grit, polishing said test side using a Buehler polishing cloth and 5 micron Buehler aluminum oxide, acid-etching said dentine section in 1% (by weight) citric acid solution for about 20 seconds, sonicating said dentine section for 10 minutes, and storing said dentine section in phosphate buffered saline (PBS, pH 7.4, Gibco Cat. No. 10010).
(§6) For treatment, the neat solution is diluted 16-fold with water, yielding a treatment solution with initial zinc concentration of about 0.149% by weight. The dentine section is immersed in the treatment solution for 1 hour at 37° C. The treated dentine section is then removed from the treatment solution, and rinsed 4 times, each time with 1 mL of PBS. The dentine section is then dried using a paper-based tissue and examined under confocal microscope in both XYZ and XYZ modes. Subsequent treatments are conducted in the same manner.
Progressive deposition and occlusion can be observed via confocal imaging. […] The surface deposits can be 10 microns or more in thickness. […] The surface deposits can be 25 microns or more in thickness.

The nature of data set [8]: Repeated 10 minute treatments of dentine section, confocal imaging. The conditions noted are these: 10 minutes at 37° C.; for surface deposition on dentine: 0.0747% zinc. Further details: species or system human. The protocol: as §5
A new dentine sections, as prepared following the procedure in Example 4, is repeatedly treated with ZLC dilutions with initial zinc concentration of 0.0747% by weight. […] The dentine section is examined under the confocal microscope after each treatment.

Data set [9] in a line: Spectrophotometric analysis of whitening (CIELAB color reading). Also on record: species or system human. The note with it: dentine section of Example 4 after third treatment. The protocol: as §6
Spectrophotometric analysis proves the whitening efficacy of the ZLC treatment. After the third treatment, the dentine section of Example 4 is dried and examined under a Spectroshade™ spectrophotometer (Handy Dental Type 71,3000). The treated dentinal area is included and the enamel rim is excluded from the examination and subsequent data processing. The CIELAB color reading is L*=86.6, a*=−1.7, and b*=1.5. A similarly prepared dentine section without treatment yielded a reading of L*=72.5, a*=−1.9, and b*=10.3. It is commonly understood that, by definition, L*=0 means black and L*=100 indicates diffuse white, negative a* value indicates green while positive values indicate magenta, and negative b* values indicate blue and positive values indicate yellow.

Turning to `[F-].[Na+]` [NaF], in [1], the Absorbance turned out to be 0.0344. In [2], this molecule had a pH of 7.63. In addition, in [3], the “Absorbance, 2 fold dilution” value is 0.0106; the “Absorbance, 4 fold dilution” value came to 0.0104; the “Absorbance, 8 fold dilution” value came to 0.0107; the “Absorbance, 16 fold dilution” value came out at 0.0075. Besides, the “Absorbance, 32 fold dilution” value in [3] turned out to be 0.0137.
On to `[Cl-].[Cl-].[Zn+2]` [ZnCl2], for which, in data set [1], the “appearance of gel phase” value is given as “appears cloudy” and the Absorbance was 0.9204. In data set [2], this molecule displayed a pH of 5.25. For the same molecule, in [3], the “Absorbance, 2 fold dilution” value was 0.7315; the “Absorbance, 4 fold dilution” value came out at 0.3700; the “Absorbance, 8 fold dilution” value worked out at 0.1701; the “Absorbance, 16 fold dilution” value came out at 0.0570. Further, the “Absorbance, 32 fold dilution” value in [3] amounted to 0.0280.
Take `[O-2].[Zn+2]` [ZnO]: in [1], the “appearance of gel phase” value is “not dissolved and is suspended in gel phase”; the Absorbance is listed as 2.4626. The same molecule displayed a pH in [2] of 8.30. Besides, in data set [3], the “Absorbance, 2 fold dilution” value is given as 2.4630; the “Absorbance, 4 fold dilution” value is 2.5340; the “Absorbance, 8 fold dilution” value is listed as 2.1883; the “Absorbance, 16 fold dilution” value is recorded as 1.8638. Also, the “Absorbance, 32 fold dilution” value in data set [3] is recorded as 1.0492.
For the molecule [Zn(C6H14N2O2)2Cl]^+Cl^− [ZLC], in [1], the “appearance of gel phase” value is listed as “forms a homogenous solution”. The molecule also registered an Absorbance in data set [1] of 0.1765. In addition, the pH in [2] was determined as 7.37. Besides, the “Absorbance, 2 fold dilution” value in data set [3] was found to be 0.1436. Also, the “Absorbance, 4 fold dilution” value in data set [3] stood at 0.1887. In data set [3], the “Absorbance, 8 fold dilution” value was 0.1860. Besides, the “Absorbance, 16 fold dilution” value in data set [3] worked out at 0.1336. Besides, the “Absorbance, 32 fold dilution” value in [3] was 0.2998. The “pH of diluted ZLC gel solution” value was determined as 7.71 in data set [4] (2 fold diluted); 7.91 in data set [4] (4 fold diluted); 8.03 in [4] (8 fold diluted); 8.12 in data set [4] (16 fold diluted); 8.14 in data set [4] (32 fold diluted). The “time to some visible flocculation from mixing with water” value in data set [5] (initial zinc concentrations 0.149% and 0.199%) was at most 30 min. The flocculation observed result in data set [5] (one and a half hours after mixing, initial zinc between 0.0747% and 0.239%) is “visible flocculation”; in data set [5] (one hour from mixing, initial zinc between 0.0854% and 0.239%), “visible flocculation”; in data set [5] (two hours after mixing, initial zinc 0.299%), “presence of flocculation”. Also, in [5] (total of 19 hours, all samples except initial zinc 1.20%), the “flocculation and/or precipitation observed” value was “flocculation and/or precipitation can be observed”. Moreover, the “relative amount of precipitates” value in data set [5] (total of 19 hours, initial zinc between 0.0747% and 0.239%) is reported as “the most precipitates”. In addition, the “final pH value of diluted sample” value in data set [6] (initial zinc concentration 0.0747%) is given as 7.99; in data set [6] (initial zinc concentration 0.0854%), 8.13; in data set [6] (initial zinc concentration 0.0996%), 8.11; in data set [6] (initial zinc concentration 0.120%) it was 7.97; in [6] (initial zinc concentration 0.149%), 7.99; in [6] (initial zinc concentration 0.199 wt %), 6.80. Besides, the “final pH value of diluted sample” value in data set [6] (initial zinc concentration 0.239%) is reported as 6.70. Besides, the “pH of neat solution” value in [6] (neat solution, zinc concentration 2.39% by weight) was “about 7.03”. Further, the “deposition and occlusion on dentine surface” value is “noticeable deposition” in data set [7] (first treatment); “complete surface coverage, including blocking of substantially all tubule openings” in data set [7] (second treatment); “complete surface coverage and complete blocking of tubule openings” in data set [7] (third treatment). The “thickness of surface deposits” value in data set [7] (second treatment) is on record as at least 10 microns; in data set [7] (third treatment), at least 25 microns. Moreover, the results for the “surface deposition on dentine” value in data set [8] (after 4 consecutive treatments) and in [8] (after 12 consecutive treatments) were “significant surface deposition” and “complete surface coverage”, respectively. Further, the “precipitation by naked eyes during treatment” value in [8] (initial zinc 0.0747%) is on record as “no precipitation”. Further, the “CIELAB color reading L*” value in [9] (untreated section L*=72.5) stood at 86.6. Also, the “CIELAB color reading a*” value in [9] (untreated section a*=−1.9) is −1.7. Moreover, the “CIELAB color reading b*” value in [9] (untreated section b*=10.3) is listed as 1.5.

Source of the values: patent publication US11197811B2, “Teeth whitening methods, visually perceptible signals and compositions therefor” (Colgate-Palmolive Company, priority 2012, dated 2021).
